According to patent publication US20230233500A1, “Gasdermin D (GSDMD) Succination for the Treatment of Inflammatory Disease” (University of Massachusetts, priority 2020, published 2023):
“Also recorded” adds a separate entry of the source. Structures can show the parent of a compound that is named as a salt.

Tests used:
[1] = tested on: GSDMD-deficient BMDMs (GSDME); experiment: Cell death in GSDMD-deficient BMDMs; assay type: cell-based, mouse
Source text: FIGS. 3A-J. Fumarate targets GSDMD and Gasdermin E (GSDME). Kinetic cell death of WT and Gsdmd-BMDMs (A) or WT/GSDMD^−/− THP1 cells (B) treated as indicated. LDH and IL-1β release from WT and Gsdmd^−/− BMDMs (C-D). Immunoblot of GSDMD and GSDME in native and reduced cell lysates from BMDMs (E). Immunoblot of GSDME in streptavidin pulldown from clicked lysates (F). Representative Mass spectra of succinated GSDME (G-H). Immunoblot analysis of GSDMD and GSDME from WT and Gsdmcd^−/− BMDMs (I). A, B representative of three independent experiments. C, D, I pooled data from three independent experiments. E, F, J representative images from 3 independent experiments. ***, P<0.0001, […] (Two-way ANOVA). Error bars show means±SEM.
FIGS. 13A-B. Fumarate inhibits GSDMD and GSDME comparably. (A) Kinetic cell death data of WT (left-panel) and GSDMD−/− (right-panel) primary BMDMs with LPS for 2 hours, DMSO (vehicle) or fumarate (0-50 μM) followed by nigericin (10 μM) for 6 hours. (B) Immunoblot analysis of GSDMD, GSDME and -actin in cell lysates from WT and GSDMD−/− BMDMs treated as in (A).
(§1) Cells were plated, treated and incubated in phenol red free medium. Following treatment medium was collected and assessed for LDH release using the CytoTox96 non-radioactive cytotoxicity assay (Promega) as per manufacturer's instructions. Kinetic cell death assays were performed using SytoxOrange and the Biotek Cytation5.

BMDMs = experiment: Pyroptosis in BMDMs after transfected LPS, Salmonella infection or poly (dA:dT); assay type: cell-based, mouse
Protocol: FIGS. 5A-G. Fumarate inhibits pyroptosis. (A) SYTOX Orange and Hoechst stained WT BMDMs treated with LPS for 2 hours, DMSO (vehicle) or fumarate (25 μM) for 1 hour and nigericin for 6 hours. (B) LDH assay conditioned medium from WT BMDMs treated with LPS for 3 hours, nigericin for the indicated times and DMSO (vehicle) or fumarate (25 μM) 15 minutes after each nigericin (10 μM) timepoint. (C) Immunoblot analysis of GSDMD in BMDMs treated as in […]. (D-E) LDH (D) and immunoblot analysis of GSDMD and β-actin in lysates (E) from WT BMDMs treated with DMSO (vehicle) or fumarate ([…]) for 1 hour followed by salmonella infection (MOI 10) for 6 hours. (F-G) LDH (F) and immunoblot analysis of GSDMD and β-actin in lysates (G) from WT BMDMs primed with LPS for 2 hours, followed by treatment with fumarate (25 μM) transfection with Poly (dA:dT) (1 μg). A, C, E, G are representative of 3 independent experiments. B, D, F are pooled data from 3 independent experiments. ***, P<0.001, ****, P<0.00001 (Two-way ANOVA). Error bars show means±SEM.
as §1
Cells were primed with LPS (100 ng/ml) from Escherichia coli serotype EH100 (ra) TLRgrade for 3 h followed by stimulation with the inflammasome activator Nigericin ([…]) for 1 h. For noncanonical inflammasome activation, cells were primed with […] Pam3CSK4 (Invivogen) for 2 h, followed by transfection of LPS (2 μg/ml) using Lipofectamine 2000 for 16 hours.

h.GSDMD = biological target: T1, h.GSDMD (Homo sapiens, UniProt P57764); experiment: In vitro succination reaction with LC-MS/MS peptide mapping; assay type: binding; conditions: recombinant h.GSDMD
T1 sequence (P57764 1-484): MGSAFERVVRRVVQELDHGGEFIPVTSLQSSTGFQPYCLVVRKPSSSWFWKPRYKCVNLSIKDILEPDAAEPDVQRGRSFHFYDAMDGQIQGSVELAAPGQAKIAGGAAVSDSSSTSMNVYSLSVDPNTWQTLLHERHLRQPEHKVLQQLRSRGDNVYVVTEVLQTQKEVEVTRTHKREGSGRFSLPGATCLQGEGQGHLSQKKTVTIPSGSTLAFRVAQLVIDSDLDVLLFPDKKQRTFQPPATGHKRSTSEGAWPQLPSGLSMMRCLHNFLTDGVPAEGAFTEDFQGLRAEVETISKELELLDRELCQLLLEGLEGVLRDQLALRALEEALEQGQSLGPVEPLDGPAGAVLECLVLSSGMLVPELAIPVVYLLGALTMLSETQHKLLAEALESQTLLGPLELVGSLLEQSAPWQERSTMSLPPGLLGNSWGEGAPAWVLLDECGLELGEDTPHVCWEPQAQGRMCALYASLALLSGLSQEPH

GSDMD = biological target: T2, GSDMD (Mus musculus, UniProt Q9D8T2); experiment: Tandem MS of GSDMD immunoprecipitated from treated BMDMs; assay type: cell-based; conditions: GSDMD immunoprecipitated from fumarate treated BMDMs
T2 construct: We also immunoprecipitated GSDMD from fumarate treated BMDMs; endogenous in cells; host or cells: primary mouse BMDMs
T2 sequence (Q9D8T2 1-487): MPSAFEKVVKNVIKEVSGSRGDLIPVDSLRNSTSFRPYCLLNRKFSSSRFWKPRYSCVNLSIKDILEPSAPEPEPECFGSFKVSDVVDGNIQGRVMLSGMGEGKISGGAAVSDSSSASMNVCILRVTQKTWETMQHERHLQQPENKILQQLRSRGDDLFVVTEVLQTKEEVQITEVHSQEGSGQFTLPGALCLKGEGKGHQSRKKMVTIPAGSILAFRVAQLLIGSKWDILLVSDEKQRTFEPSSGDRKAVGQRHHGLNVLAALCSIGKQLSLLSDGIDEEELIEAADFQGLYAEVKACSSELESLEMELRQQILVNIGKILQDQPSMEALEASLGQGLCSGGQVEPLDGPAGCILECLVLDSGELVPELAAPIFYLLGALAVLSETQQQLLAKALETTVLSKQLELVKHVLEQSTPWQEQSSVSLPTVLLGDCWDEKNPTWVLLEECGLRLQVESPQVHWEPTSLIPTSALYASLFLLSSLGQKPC

COC(=O)/C=C/C(=O)OC [Fumarate, Dimethyl fumarate]
cell death (GSDMD-independent, GSDME-dependent) ([1]; GSDMD-deficient BMDMs, kinetic): inhibited cell death
GSDME processing / generation of GSDME-N ([1]; GSDMD-deficient cells, immunoblot): blocked
inhibition of GSDMD-driven versus GSDME-driven cell death ([1]; WT and GSDMD-/- BMDMs, fumarate 0-50 μM, nigericin 6 hours): comparably
inhibitory effect on pyroptosis after poly (dA:dT) (BMDMs; LPS primed 2 hours, fumarate 25 μM, LDH and GSDMD immunoblot): inhibitory effect
inhibitory effect on pyroptosis after Salmonella infection (BMDMs; fumarate 25 μM 1 hour, MOI 10, 6 hours, LDH and GSDMD immunoblot): inhibitory effect
inhibitory effect on pyroptosis after transfected LPS (BMDMs; noncanonical inflammasome): inhibitory effect
In vitro cysteine succination sites (h.GSDMD): same cysteines
In vitro cysteine succination sites (h.GSDMD; listed as DMF): Cys309; also recorded: Cys467; also recorded: Cys56; also recorded: Cys191; also recorded: Cys268
2-monomethyl and 2-dimethyl succination sites of GSDMD in cells (GSDMD): Cys^192; also recorded: Cys^57; also recorded: Cys^77
